≈ marks a conversion by molar mass, not a printed value.
Assays:
Format in all cases: functional
Sporothrix schenckii [1] = assay: Antifungal activity against Sporothrix schenckii MRSS4 isolate from cutaneous-lymphatic sporotrichosis patient after 72 hrs by Sensititre YeastOne method
Sporothrix schenckii [2] = assay: Antifungal activity against Sporothrix schenckii P20825 isolate from cutaneous-lymphatic sporotrichosis patient after 72 hrs by modified NCCLS M38-A method
Sporothrix schenckii [3] = assay: Antifungal activity against Sporothrix schenckii PSSA81 isolate from cutaneous-lymphatic sporotrichosis patient after 72 hrs by Sensititre YeastOne method
Sporothrix schenckii [4] = assay: Antifungal activity against Sporothrix schenckii PJRC002 isolate from cutaneous-lymphatic sporotrichosis patient after 72 hrs by Sensititre YeastOne method
Sporothrix schenckii [5] = assay: Antifungal activity against Sporothrix schenckii P24223 isolate from cutaneous-lymphatic sporotrichosis patient after 72 hrs by Sensititre YeastOne method
Sporothrix schenckii [6] = assay: Antifungal activity against Sporothrix schenckii PGAC0016 isolate from cutaneous-lymphatic sporotrichosis patient after 72 hrs by modified NCCLS M38-A method
Aspergillus flavus [7] = assay: Antifungal activity against Aspergillus flavus ATCC 204304 […] after 72 hrs by Sensititre YeastOne method; conditions: ATCC 204304, 72 h
Candida parapsilosis [8] = assay: Antifungal activity against Candida parapsilosis ATCC 22019 […] after 72 hrs by modified NCCLS M38-A method; conditions: Lodderomyces parapsilosis, ATCC 22019, 72 h
Sporothrix schenckii [9] = assay: Antifungal activity against Sporothrix schenckii PSCC1 isolate from cutaneous-lymphatic sporotrichosis patient after 72 hrs by modified NCCLS M38-A method
Sporothrix schenckii [10] = assay: Antifungal activity against Sporothrix schenckii SSA29 isolate from cutaneous-lymphatic sporotrichosis patient after 72 hrs by modified NCCLS M38-A method
Sporothrix schenckii [11] = assay: Antifungal activity against Sporothrix schenckii P10012 isolate from cutaneous-lymphatic sporotrichosis patient after 72 hrs by modified NCCLS M38-A method
Sporothrix schenckii [12] = assay: Antifungal activity against Sporothrix schenckii isolate from cutaneous-lymphatic sporotrichosis patient after 72 hrs by Sensititre YeastOne method
Sporothrix schenckii [13] = assay: Antifungal activity against Sporothrix schenckii MRSS4 isolate from cutaneous-lymphatic sporotrichosis patient after 72 hrs by modified NCCLS M38-A method
Sporothrix schenckii [14] = assay: Antifungal activity against Sporothrix schenckii isolate from cutaneous-lymphatic sporotrichosis patient after 72 hrs by modified NCCLS M38-A method
Pichia kudriavzevii [15] = assay: Antifungal activity against Candida krusei ATCC 6258 […] after 72 hrs by Sensititre YeastOne method; conditions: ATCC 6258, 72 h
Sporothrix schenckii [16] = assay: Antifungal activity against Sporothrix schenckii PSCC1 isolate from cutaneous-lymphatic sporotrichosis patient after 72 hrs by Sensititre YeastOne method
Sporothrix schenckii [17] = assay: Antifungal activity against Sporothrix schenckii P24223 isolate from cutaneous-lymphatic sporotrichosis patient after 72 hrs by modified NCCLS M38-A method
Sporothrix schenckii [18] = assay: Antifungal activity against Sporothrix schenckii P14954 isolate from cutaneous-lymphatic sporotrichosis patient after 72 hrs by modified NCCLS M38-A method
Sporothrix schenckii [19] = assay: Antifungal activity against Sporothrix schenckii PJRC002 isolate from cutaneous-lymphatic sporotrichosis patient after 72 hrs by modified NCCLS M38-A method
Sporothrix schenckii [20] = assay: Antifungal activity against Sporothrix schenckii P1621 isolate from cutaneous-lymphatic sporotrichosis patient after 72 hrs by Sensititre YeastOne method
Pichia kudriavzevii [21] = assay: Antifungal activity against Candida krusei ATCC 6258 […] after 72 hrs by modified NCCLS M38-A method; conditions: ATCC 6258, 72 h
Sporothrix schenckii [22] = assay: Antifungal activity against Sporothrix schenckii P25013 isolate from cutaneous-lymphatic sporotrichosis patient after 72 hrs by Sensititre YeastOne method
Sporothrix schenckii [23] = assay: Antifungal activity against Sporothrix schenckii P20825 isolate from cutaneous-lymphatic sporotrichosis patient after 72 hrs by Sensititre YeastOne method
Sporothrix schenckii [24] = assay: Antifungal activity against Sporothrix schenckii PGAC0016 isolate from cutaneous-lymphatic sporotrichosis patient after 72 hrs by Sensititre YeastOne method
Sporothrix schenckii [25] = assay: Antifungal activity against Sporothrix schenckii P3287 isolate from cutaneous-lymphatic sporotrichosis patient after 72 hrs by modified NCCLS M38-A method
Sporothrix schenckii [26] = assay: Antifungal activity against Sporothrix schenckii P30019 isolate from cutaneous-lymphatic sporotrichosis patient after 72 hrs by Sensititre YeastOne method
Sporothrix schenckii [27] = assay: Antifungal activity against Sporothrix schenckii P30915 isolate from cutaneous-lymphatic sporotrichosis patient after 72 hrs by modified NCCLS M38-A method
Sporothrix schenckii [28] = assay: Antifungal activity against Sporothrix schenckii P14954 isolate from cutaneous-lymphatic sporotrichosis patient after 72 hrs by Sensititre YeastOne method
Sporothrix schenckii [29] = assay: Antifungal activity against Sporothrix schenckii P24255 isolate from cutaneous-lymphatic sporotrichosis patient after 72 hrs by modified NCCLS M38-A method
Sporothrix schenckii [30] = assay: Antifungal activity against Sporothrix schenckii P14036 isolate from cutaneous-lymphatic sporotrichosis patient after 72 hrs by modified NCCLS M38-A method
Sporothrix schenckii [31] = assay: Antifungal activity against Sporothrix schenckii P26187 isolate from cutaneous-lymphatic sporotrichosis patient after 72 hrs by modified NCCLS M38-A method
Sporothrix schenckii [32] = assay: Antifungal activity against Sporothrix schenckii P0019 isolate from cutaneous-lymphatic sporotrichosis patient after 72 hrs by modified NCCLS M38-A method
Sporothrix schenckii [33] = assay: Antifungal activity against Sporothrix schenckii P26187 isolate from cutaneous-lymphatic sporotrichosis patient after 72 hrs by Sensititre YeastOne method
Sporothrix schenckii [34] = assay: Antifungal activity against Sporothrix schenckii SSA29 isolate from cutaneous-lymphatic sporotrichosis patient after 72 hrs by Sensititre YeastOne method
Sporothrix schenckii [35] = assay: Antifungal activity against Sporothrix schenckii PSSA81 isolate from cutaneous-lymphatic sporotrichosis patient after 72 hrs by modified NCCLS M38-A method
Aspergillus flavus [36] = assay: Antifungal activity against Aspergillus flavus ATCC 204304 […] after 72 hrs by modified NCCLS M38-A method; conditions: ATCC 204304, 72 h
Sporothrix schenckii [37] = assay: Antifungal activity against Sporothrix schenckii P24255 isolate from cutaneous-lymphatic sporotrichosis patient after 72 hrs by Sensititre YeastOne method
Sporothrix schenckii [38] = assay: Antifungal activity against Sporothrix schenckii P10012 isolate from cutaneous-lymphatic sporotrichosis patient after 72 hrs by Sensititre YeastOne method
Sporothrix schenckii [39] = assay: Antifungal activity against Sporothrix schenckii P0019 isolate from cutaneous-lymphatic sporotrichosis patient after 72 hrs by Sensititre YeastOne method
Sporothrix schenckii [40] = assay: Antifungal activity against Sporothrix schenckii P14036 isolate from cutaneous-lymphatic sporotrichosis patient after 72 hrs by Sensititre YeastOne method
Candida parapsilosis [41] = assay: Antifungal activity against Candida parapsilosis ATCC 22019 […] after 72 hrs by Sensititre YeastOne method; conditions: Lodderomyces parapsilosis, ATCC 22019, 72 h
Sporothrix schenckii [42] = assay: Antifungal activity against Sporothrix schenckii P30915 isolate from cutaneous-lymphatic sporotrichosis patient after 72 hrs by Sensititre YeastOne method
Sporothrix schenckii [43] = assay: Antifungal activity against Sporothrix schenckii P25013 isolate from cutaneous-lymphatic sporotrichosis patient after 72 hrs by modified NCCLS M38-A method
Sporothrix schenckii [44] = assay: Antifungal activity against Sporothrix schenckii P3287 isolate from cutaneous-lymphatic sporotrichosis patient after 72 hrs by Sensititre YeastOne method
Sporothrix schenckii [45] = assay: Antifungal activity against Sporothrix schenckii P30019 isolate from cutaneous-lymphatic sporotrichosis patient after 72 hrs by modified NCCLS M38-A method
Sporothrix schenckii [46] = assay: Antifungal activity against Sporothrix schenckii P1621 isolate from cutaneous-lymphatic sporotrichosis patient after 72 hrs by modified NCCLS M38-A method

C[C@@H](c1ncncc1F)[C@](O)(Cn1cncn1)c1ccc(F)cc1F [VORICONAZOLE]
MIC (Sporothrix schenckii [1]): 2 µg/mL (≈ 5.73 µM)
MIC (Sporothrix schenckii [2]): 8 µg/mL (≈ 22.9 µM)
MIC (Sporothrix schenckii [3]): 0.5 µg/mL (≈ 1.43 µM)
MIC (Sporothrix schenckii [4]): 2 µg/mL (≈ 5.73 µM)
MIC (Sporothrix schenckii [5]): 8 µg/mL (≈ 22.9 µM)
MIC (Sporothrix schenckii [6]): 16 µg/mL (≈ 45.8 µM)
MIC (Aspergillus flavus [7]): 0.25 µg/mL (≈ 0.716 µM)
MIC (Candida parapsilosis [8]): 0.03 µg/mL (≈ 0.0859 µM)
MIC (Sporothrix schenckii [9]): 4 µg/mL (≈ 11.5 µM)
MIC (Sporothrix schenckii [10]): 8 µg/mL (≈ 22.9 µM)
MIC (Sporothrix schenckii [11]): 16 µg/mL (≈ 45.8 µM)
MIC50 (Sporothrix schenckii [12]): 2 µg/mL (≈ 5.73 µM)
MIC90 (Sporothrix schenckii [12]): 8 µg/mL (≈ 22.9 µM)
MIC (Sporothrix schenckii [13]): 8 µg/mL (≈ 22.9 µM)
MIC50 (Sporothrix schenckii [14]): 8 µg/mL (≈ 22.9 µM)
MIC90 (Sporothrix schenckii [14]): 16 µg/mL (≈ 45.8 µM)
MIC (Pichia kudriavzevii [15]): 1 µg/mL (≈ 2.86 µM)
MIC (Sporothrix schenckii [16]): 2 µg/mL (≈ 5.73 µM)
MIC (Sporothrix schenckii [17]): 8 µg/mL (≈ 22.9 µM)
MIC (Sporothrix schenckii [18]): 16 µg/mL (≈ 45.8 µM)
MIC (Sporothrix schenckii [19]): 4 µg/mL (≈ 11.5 µM)
MIC (Sporothrix schenckii [20]): 2 µg/mL (≈ 5.73 µM)
MIC (Pichia kudriavzevii [21]): 0.12 µg/mL (≈ 0.344 µM)
MIC (Sporothrix schenckii [22]): 0.5 µg/mL (≈ 1.43 µM)
MIC (Sporothrix schenckii [23]): 0.5 µg/mL (≈ 1.43 µM)
MIC (Sporothrix schenckii [24]): 4 µg/mL (≈ 11.5 µM)
MIC (Sporothrix schenckii [25]): 16 µg/mL (≈ 45.8 µM)
MIC (Sporothrix schenckii [26]): 1 µg/mL (≈ 2.86 µM)
MIC (Sporothrix schenckii [27]): 16 µg/mL (≈ 45.8 µM)
MIC (Sporothrix schenckii [28]): 8 µg/mL (≈ 22.9 µM)
MIC (Sporothrix schenckii [29]): 8 µg/mL (≈ 22.9 µM)
MIC (Sporothrix schenckii [30]): 8 µg/mL (≈ 22.9 µM)
MIC (Sporothrix schenckii [31]): 8 µg/mL (≈ 22.9 µM)
MIC (Sporothrix schenckii [32]): 16 µg/mL (≈ 45.8 µM)
MIC (Sporothrix schenckii [33]): 4 µg/mL (≈ 11.5 µM)
MIC (Sporothrix schenckii [34]): 4 µg/mL (≈ 11.5 µM)
MIC (Sporothrix schenckii [35]): 8 µg/mL (≈ 22.9 µM)
MIC (Aspergillus flavus [36]): 0.5 µg/mL (≈ 1.43 µM)
MIC (Sporothrix schenckii [37]): 4 µg/mL (≈ 11.5 µM)
MIC (Sporothrix schenckii [38]): 0.5 µg/mL (≈ 1.43 µM)
MIC (Sporothrix schenckii [39]): 0.5 µg/mL (≈ 1.43 µM)
MIC (Sporothrix schenckii [40]): 0.5 µg/mL (≈ 1.43 µM)
MIC (Candida parapsilosis [41]): 0.06 µg/mL (≈ 0.172 µM)
MIC (Sporothrix schenckii [42]): 4 µg/mL (≈ 11.5 µM)
MIC (Sporothrix schenckii [43]): 8 µg/mL (≈ 22.9 µM)
MIC (Sporothrix schenckii [44]): 8 µg/mL (≈ 22.9 µM)
MIC (Sporothrix schenckii [45]): 4 µg/mL (≈ 11.5 µM)
MIC (Sporothrix schenckii [46]): 16 µg/mL (≈ 45.8 µM)
